In the supplement of paper PMC11061612:

Legend:
Experiment in all cases: Bliss excess, mean over the matrix (fraction); higher = more synergy
[1] = test system: CAL-72 (Osteosarcoma)
In short: (§1)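 Bliss excess equals the observed combination effect minus the expected value EA + EB − EA·EB, where EA and EB are the effects of each agent alone. Combination Emax is the second-highest inhibition within the matrix. Inhibition was scaled from CellTiter-Glo 2.0 luminescence, with 0 set by vehicle wells and 1 by blank wells, after 72 hours of two-drug dosing of cells plated in 1536-well plates.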

[2] = test system: NCI-H1568 (Lung Adenocarcinoma)
In short: as §1

[3] = test system: NCI-H209 (Small Cell Lung Carcinoma)
In short: as §1

[4] = test system: LCLC-97TM1 (Non-Small Cell Lung Carcinoma)
In short: as §1

[5] = test system: ESS-1 (Other Solid Carcinomas)
In short: as §1

[6] = test system: LS-123 (Colorectal Carcinoma)
In short: as §1

[7] = test system: KS-1 (Glioblastoma)
In short: as §1

[8] = test system: BE-13 (T-Lymphoblastic Leukemia)
In short: as §1

[9] = test system: CAL-33 (Oral Cavity Carcinoma)
In short: as §1

[10] = test system: HuH-7 (Hepatocellular Carcinoma)
In short: as §1

[11] = test system: LNZTA3WT4 (Low Grade Glioma)
In short: as §1

[12] = test system: LOXIMVI (Melanoma)
In short: as §1

[13] = test system: OV-56 (Ovarian Carcinoma)
In short: as §1

[14] = test system: KYAE-1 (Esophageal Adenocarcinoma)
In short: as §1

[15] = test system: OVCAR-5 (Ovarian Carcinoma)
In short: as §1

[16] = test system: L-428 (Hodgkin's Lymphoma)
In short: as §1

[17] = test system: MHH-CALL-2 (B-Lymphoblastic Leukemia)
In short: as §1

[18] = test system: KMRC-20 (Kidney Carcinoma)
In short: as §1

[19] = test system: HeLa (Cervical Carcinoma)
In short: as §1

[20] = test system: BE2-M17 (Neuroblastoma)
In short: as §1

| SMILES | Bliss excess [1] | Bliss excess [2] | Bliss excess [3] | Bliss excess [4] | Bliss excess [5] | Bliss excess [6] | Bliss excess [7] | Bliss excess [8] | Bliss excess [9] | Bliss excess [10] | Bliss excess [11] | Bliss excess [12] | Bliss excess [13] | Bliss excess [14] | Bliss excess [15] | Bliss excess [16] | Bliss excess [17] | Bliss excess [18] | Bliss excess [19] | Bliss excess [20] |
| --- | --- | --- | --- | --- | --- | --- | --- | --- | --- | --- | --- | --- | --- | --- | --- | --- | --- | --- | --- | --- |
| CC1(C)CCC(CN2CCN(c3ccc(C(=O)NS(=O)(=O)c4ccc(NCC5CCOCC5)c([N+](=O)[O-])c4)c(Oc4cnc5[nH]ccc5c4)c3)CC2)=C(c2ccc(Cl)cc2)C1 [Venetoclax] + C[C@@H]1COCCN1C2=NC(=NC(=C2)C3(CC3)[S@](=N)(=O)C)C4=C5C=CNC5=NC=C4 [AZD6738] (first compound max 1 µM, 7x7, partner max 10 µM) | -0.0313 | -0.0156 | 0.127 | -0.0506 | 0.0147 | -0.0395 | -0.0368 | -0.0204 | -0.0489 | -0.0181 | 0.0105 | -0.011 | -0.0475 | -0.0387 | -0.0717 | 0.0164 | -0.0357 | -0.0047 | -0.0688 | -0.0661 |
| COc1cccc(OCCCN)c1-c1cc(Nc2cnc(C#N)cn2)n[nH]1 [Prexasertib] + CCc1c2c(nc3ccc(O)cc13)-c1cc3c(c(=O)n1C2)COC(=O)[C@]3(O)CC [SN-38] (first compound max 1 µM, 7x7, partner max 0.3 µM) | -0.0158 | 0.0165 | 0.0053 | 0.0863 | -0.0183 | 0.0186 | -0.0848 | 0.0072 | -0.0329 | 0.122 | 0.0266 | -0.0455 | 0.009 | 0.102 | -0.0162 | -0.0235 | 0.0227 | -0.0215 | 0.0837 | 0.0576 |
| Cn1cnc2c(F)c(Nc3ccc(Br)cc3Cl)c(C(=O)NOCCO)cc21 [Selumetinib] + CC(C)n1c(=O)n(C)c2cnc3cc(F)c(-c4ccc(OCCCN5CCCCC5)nc4)cc3c21 [AZD1390] (first compound max 10 µM, 7x7, partner max 0.3 µM) | -0.0484 | -0.0508 | -0.037 | 0.0069 | -0.0044 | 0.0194 | -0.0384 | -0.0283 | 0.0649 | -0.0205 | -0.0324 | -0.0098 | -0.0526 | -0.026 | 0.0017 | -0.0231 | 0.0042 | -0.0458 | -0.0437 | -0.0293 |
| CC(=O)c1c(C)c2cnc(Nc3ccc(N4CCNCC4)cn3)nc2n(C2CCCC2)c1=O [Palbociclib] + CC1(C)CCC(CN2CCN(c3ccc(C(=O)NS(=O)(=O)c4ccc(NCC5CCOCC5)c([N+](=O)[O-])c4)c(Oc4cnc5[nH]ccc5c4)c3)CC2)=C(c2ccc(Cl)cc2)C1 [Venetoclax] (first compound max 10 µM, 7x7, partner max 1 µM) | -0.0439 | -0.0506 | 0.0824 | -0.0231 | -0.0303 | -0.0324 | -0.0211 | -0.0182 | -0.022 | -0.0402 | -0.0032 | -0.0045 | -0.0448 | -0.023 | -0.0018 | 0.0037 | -0.032 | -0.03 | -0.0473 | 0.0218 |
| Cc1c2c(nn1C)CSCc1cc(n(C)n1)CSc1cc(c3ccccc3c1)OCCCc1c(C(=O)O)n(C)c3c-2c(Cl)ccc13 [AZD5991] + CC1(C)CCC(CN2CCN(c3ccc(C(=O)NS(=O)(=O)c4ccc(NCC5CCOCC5)c([N+](=O)[O-])c4)c(Oc4cnc5[nH]ccc5c4)c3)CC2)=C(c2ccc(Cl)cc2)C1 [Venetoclax] (first compound max 1 µM, 7x7, partner max 1 µM) | 0.0676 | -0.0334 | 0.241 | -0.023 | -0.0082 | -0.026 | -0.0307 | 0.106 | 0.0122 | -0.0272 | 0.0364 | -0.0182 | 0.0077 | 0.0049 | -0.0365 | -0.0151 | 0.0043 | -0.0206 | 0.0343 | 0.0276 |
| Cc1c2c(nn1C)CSCc1cc(n(C)n1)CSc1cc(c3ccccc3c1)OCCCc1c(C(=O)O)n(C)c3c-2c(Cl)ccc13 [AZD5991] + C[C@@H](Nc1cc(F)cc(F)c1)c1cc(C(=O)N(C)C)cc2c(=O)cc(N3CCOCC3)oc12 [AZD8186] (first compound max 1 µM, 7x7, partner max 3 µM) | -0.0149 | 0.0126 | -0.0154 | -0.003 | -0.045 | -0.0006 | -0.0129 | -0.109 | -0.0099 | -0.007 | 0.0055 | -0.0227 | 0.017 | -0.0125 | -0.0106 | -0.0085 | -0.0188 | 0.0456 | 0.0387 | -0.0355 |
| CC1(C)CCC(CN2CCN(c3ccc(C(=O)NS(=O)(=O)c4ccc(NCC5CCOCC5)c([N+](=O)[O-])c4)c(Oc4cnc5[nH]ccc5c4)c3)CC2)=C(c2ccc(Cl)cc2)C1 [Venetoclax] + CCN(CCO)CCCOc1ccc2c(Nc3cc(CC(=O)Nc4cccc(F)c4)[nH]n3)ncnc2c1 [AZD2811] (first compound max 1 µM, 7x7, partner max 1 µM) | -0.0984 | -0.0339 | 0.356 | -0.0053 | 0.0506 | -0.0437 | -0.0516 | -0.0468 | -0.0261 | -0.0133 | 0.0218 | 0.0139 | 0.0214 | -0.0002 | -0.0482 | 0.0178 | -0.01 | -0.0273 | 0.0336 | 0.107 |
| CC1(C)CCC(CN2CCN(c3ccc(C(=O)NS(=O)(=O)c4ccc(NCC5CCOCC5)c([N+](=O)[O-])c4)c(Oc4cnc5[nH]ccc5c4)c3)CC2)=C(c2ccc(Cl)cc2)C1 [Venetoclax] + COc1cc(Nc2ncc3c(n2)-c2ccc(Cl)cc2C(c2c(F)cccc2OC)=NC3)ccc1C(=O)O [Alisertib] (first compound max 1 µM, 7x7, partner max 10 µM) | -0.049 | -0.0418 | 0.318 | 0.0449 | 0.0748 | 0.0288 | 0.0145 | -0.003 | -0.0356 | -0.0508 | 0.023 | -0.0332 | 0.001 | -0.119 | -0.0703 | 0.0501 | 0.165 | 0.0226 | 0.0517 | 0.215 |
| Cn1cnc2c(F)c(Nc3ccc(Br)cc3Cl)c(C(=O)NOCCO)cc21 [Selumetinib] + C[C@@H]1COCCN1C2=NC(=NC(=C2)C3(CC3)[S@](=N)(=O)C)C4=C5C=CNC5=NC=C4 [AZD6738] (first compound max 10 µM, 7x7, partner max 10 µM) | -0.0387 | -0.0261 | -0.0403 | -0.0043 | 0.024 | 0.0709 | -0.0315 | -0.0181 | 0.0115 | -0.0221 | -0.0661 | 0.0322 | -0.0239 | -0.0243 | -0.0236 | -0.0311 | 0.0085 | -0.0496 | 0.0113 | 0.0348 |
| CC1(C)CCC(CN2CCN(c3ccc(C(=O)NS(=O)(=O)c4ccc(NCC5CCOCC5)c([N+](=O)[O-])c4)c(Oc4cnc5[nH]ccc5c4)c3)CC2)=C(c2ccc(Cl)cc2)C1 [Venetoclax] + Cn1cnc2c(F)c(Nc3ccc(Br)cc3Cl)c(C(=O)NOCCO)cc21 [Selumetinib] (first compound max 1 µM, 7x7, partner max 3 µM) | -0.0593 | -0.0681 | 0.0379 | -0.0023 | -0.0393 | -0.0512 | 0.0043 | -0.0418 | -0.0292 | -0.055 | -0.0321 | -0.0228 | -0.0188 | -0.028 | -0.069 | -0.0042 | 0.0653 | 0.0022 | -0.0369 | -0.0116 |
| NC1(C(=O)N[C@@H](CCO)c2ccc(Cl)cc2)CCN(c2ncnc3[nH]ccc23)CC1 [Capivasertib] + CCN(CCO)CCCOc1ccc2c(Nc3cc(CC(=O)Nc4cccc(F)c4)[nH]n3)ncnc2c1 [AZD2811] (first compound max 10 µM, 7x7, partner max 1 µM) | 0.002 | -0.0235 | -0.0383 | 0.0429 | 0.0203 | -0.0179 | 0.0374 | -0.0125 | -0.0564 | -0.0168 | -0.0551 | -0.0072 | -0.0077 | 0.0023 | -0.0223 | 0.0098 | -0.0244 | -0.015 | -0.0411 | -0.043 |
| COc1nnc2ccc(N3CCC(c4ccc(OCCN5CCN(C)C(=O)[C@H]5C)cc4)CC3)nn12 [AZD5153] + Cn1cnc2c(F)c(Nc3ccc(Br)cc3Cl)c(C(=O)NOCCO)cc21 [Selumetinib] (first compound max 1 µM, 7x7, partner max 10 µM) | -0.0414 | -0.0099 | -0.0214 | -0.0694 | -0.0065 | 0.0261 | 0.0982 | -0.0209 | 0.0584 | 0.006 | -0.143 | -0.0679 | -0.0232 | -0.004 | -0.0429 | -0.0409 | -0.0438 | -0.08 | -0.0409 | 0.0139 |
| Cc1c2c(nn1C)CSCc1cc(n(C)n1)CSc1cc(c3ccccc3c1)OCCCc1c(C(=O)O)n(C)c3c-2c(Cl)ccc13 [AZD5991] + Cn1cnc2c(F)c(Nc3ccc(Br)cc3Cl)c(C(=O)NOCCO)cc21 [Selumetinib] (first compound max 1 µM, 7x7, partner max 3 µM) | 0.0483 | 0.102 | -0.0778 | 0.0506 | 0.0083 | 0.0196 | -0.0456 | 0.0415 | 0.0814 | -0.0361 | 0.0046 | 0.0256 | 0.0034 | -0.0155 | -0.0349 | 0.0018 | 0.111 | 0.0054 | -0.004 | 0.0436 |
| CN(CCO)CC[C@H](CSc1ccccc1)Nc1ccc(S(=O)(=O)NC(=O)c2ccc(N3CCC([C@@H](O)c4ccccc4-c4ccc(Cl)cc4)CC3)cc2)cc1S(=O)(=O)C(F)(F)F [AZD4320] + CN(C)CCCOc1ccc(-c2ccc3ncc4c(c3c2)n(C2CCOCC2)c(=O)n4C)cn1 [AZD0156] (first compound max 1 µM, 7x7, partner max 1 µM) | -0.0292 | -0.0099 | 0.033 | -0.0244 | 0.039 | – | -0.0136 | -0.0325 | 0.007 | -0.0129 | -0.0259 | 0.0015 | -0.015 | -0.0114 | -0.0527 | 0.0464 | 0.106 | -0.0377 | -0.0321 | -0.0171 |
